# Data: US20180235870A1, “TRANSDERMAL FORMULATIONS FOR DELIVERY OF BERBERINE COMPOUNDS, AND THEIR USE IN THE TREATMENT OF BERBERINE-RESPONSIVE DISEASES AND CONDITIONS” (DELIVRA INC., priority 2015, published 2018)
# How the values were obtained:
# [1] = Plasma concentrations of berberine, berberine glucuronide, simvastatin and simvastatin hydroxy acid in rats (Example 20); assay type: in vivo; conditions: rats (n=2); oral 180 mg/kg/dose or transdermal 3.6 g/kg/dose
# [2] = uptake inhibited by P-gp-mediated efflux; cited from earlier work
# [3] = test system: PCSK9 expression in HEPG2 cells; assay: Berberine signaling in HEPG2: PCSK9 western blot of supernatant; assay type: cell-based, human; conditions: 24 hours; for expression of PCSK9 in supernatant (western blot): 25 to 3.125 ug/ml, versus negative control
# Description: HEPG2 cells were cultured in 24 well plates to confluence in DMEM supplemented with 10% FBS. After reaching confluence, cells were incubated overnight with 0.1% FBS OPTIMEM for serum starvation. After serum starvation the cells were incubated with berberine, DHB, or THB in 0.1% FBS OPTIMEM using the following dose course: 25 ug/ml, 12.5 ug/ml 6.25 ug/ml 3.125 ug/ml for 24 hours. Supernatant was collected after stimulation and western blotted as follows:
# (1) Resolved on 12.5% gel.
# (3) Blocked with 3% BSA TBST (4) Rabbit anti PCSK9 (Cayman chemicals cat 10007185) at 1/600 in TTBS (5) Wash 3×5 min with TTBS (6) HRP-Goat anti-Rabbit 1/1000 (Cayman chemicals) (7) Wash 3×5 min with TTBS (8) Detection with ECL
# Proprotein convertase subtilisin/kexin type 9 (PCSK9) post-transcriptionally downregulates the low-density lipoprotein receptor (LDLR) by binding to the receptor's epidermal growth factor repeat A on the cell surface and shuttling the LDLR to the lysosomes for degradation. […] Previous reports indicate that berberine has lipid lowering effects in both animal models and human trials (Arrigo F. G., Cicero, L., Rovati C. et al., 2007). The signalling effects of berberine, DHB, and THB were evaluated using the human liver cell line HEPG2. PCSK9, an enzyme that acts in cholesterol homeostasis, is expressed in HEPG2 cells and these cells have previously been used as a model of dyslipidemia. PCSK9 binds to LDL receptor causing uptake of LDL and the LDL receptor and targets both molecules for degradation upon internalization. In the absence of PCSK9, LDL and LDL receptor are still internalized, however, LDL receptor is not degraded but instead recycled to the cell surface resulting in more efficient uptake of circulating LDL.
# [4] = cited from earlier work
# [5] = test system: male Zucker rat, a model of type-2 diabetes and metabolic disorder; assay: Effect of berberine, metformin and simvastatin on body mass, lipid biomarkers, food and water intake, clinical chemistry (Example 18); assay type: in vivo, obese male Zucker fa/fa rats; conditions: Zucker rats, Days 0 to 28
# Description: All in vivo animal husbandry, treatment regiments, and sample collections were completed by InterVivo. The study was completed using obese male Zucker fa/fa rats (Charles River) at 10 weeks of age. […] Shaving was performed under anaesthesia one day prior to initiation of test article administration. The area was further shaven, as needed, over the course of the dosing period to ensure accurate drug application and absorption. For dosing procedures, animals were restrained and the transdermal test articles applied in a uniform layer over the entire shaved area. The shaved administration area was cleaned daily with paper towel before the subsequent transdermal dose was administered. Animals receiving test articles via oral gavage were restrained, and a ball-tipped gavage needle (18G) attached to a syringe containing the dosing solution was first inserted into the mouth, and then into the stomach. To determine the appropriate depth of insertion of the needle, the position corresponding to the last rib was measured prior to insertion. […] Group A), oral administration of berberine (180 mg/kg/dose; […] Group C), and oral administration of the vehicle (Group D) (Table 19). […] Group F), or with orally-administered metformin (200 mg/kg/dose; Group G). […] On Day 28, the animals were dosed in the morning only, prior to euthanasia and tissue collection. Animal body weights were performed once weekly from Day −34 to −2 and daily from Day −1 to 28. Rats were weighed, and the scales were operated and maintained, according to standard operating procedures. Food and water consumption measurements were taken over a 24 hour period, once weekly, from Days 0 to 28. Blood was collected via tail nick on Day-1 to determine unfasted blood glucose level for group allocation. Whole blood was collected via the saphenous vein or other appropriate route on Days 0, 7, 14, 21 and 28 immediately prior to test article administration. […] On Day 28, subjects were anaesthetized with isoflurane, and whole blood was collected via cardiac puncture 2.5 hours (+/−5 minutes) following treatment administration on this day. […]
# [6] = Solubility testing of berberine and dihydroberberine using various solvents; assay type: physicochemical
# Description: Solubility was determined in a step-wise procedure that involved attempting to dissolve the berberine/DHB in the solvents at relatively high concentrations. […] Then the expected solvent was added to the berberine/DHB. The container was sonicated at RT or at 40C for 30 minutes. The following solvents were tested to dissolve the DHB. Dimethyl sulfoxide (Reagent Grade; […] Lot #STB[…]), and Glycerol tributyrate (Sigma T8626; Lot #BCBQ […]). […] The solubility was visually checked and state of solubility was recorded.
# [7] = first four weeks of treatment, 0.5 g t.i.d.
# [8] = Glycerol tributyrate, sonication 40 C.
# [9] = Glycerol tributyrate, sonication RT
# [10] = Isopropyl myristate, sonication 40 C.
# [11] = Isopropyl myristate, sonication RT
# [12] = Isosorbid-dimethyl ether 98%, sonication RT
# [13] = Oleyl alcohol, sonication 40 C.
structure (smiles),measurement,setting,value
"COc1ccc2cc3[n+](cc2c1OC)CCc1cc2c(cc1-3)OCO2 [berberine, Berberine]",berberine plasma concentration,[1],0.44 ng/mL
same,bioavailability,[2],less than 5%
same,concentration down to which expression of PCSK9 was reduced,[3],6.25 µg/mL
same,expression of PCSK9 in supernatant (western blot),[3],reduce the expression of PCSK9
same,expression of PCSK9 in supernatant (western blot),[3]; listed as Berberine,down-regulate the expression of PCSK9
same,"abdominal pain, percentage of patients",[4]; [7],3.4%
same,"constipation, percentage of patients",[4]; [7],6.9%
same,"diarrhea, percentage of patients",[4]; [7],10.3%
same,"flatulence, percentage of patients",[4]; [7],19.0%
same,patients with adverse gastrointestinal side-effects,"[4]; type 2 diabetes patients, 13 week berberine treatment",34.5%
same,cholesterol and triglyceride blood counts (in words),[5],reduced cholesterol and triglyceride blood counts
same,glucose levels (in words),[5]; non-fasting,largest reduction in glucose levels
same,Dissolving Capability,"[6]; Ethanol, sonication 40 C.",40 mg/mL
same,State of Solubility,"[6]; Ethanol, sonication 40 C.",Suspension
same,Dissolving Capability,"[6]; Ethanol, sonication RT",25 mg/mL
same,State of Solubility,"[6]; Ethanol, sonication RT",Suspension
same,Dissolving Capability,[6]; [8],250 mg/mL
same,State of Solubility,[6]; [8],Suspension
same,Dissolving Capability,[6]; [9],50 mg/mL
same,State of Solubility,[6]; [9],Suspension
same,Dissolving Capability,[6]; [10],250 mg/mL
same,State of Solubility,[6]; [10],Suspension
same,Dissolving Capability,[6]; [11],50 mg/mL
same,State of Solubility,[6]; [11],Suspension
same,Dissolving Capability,"[6]; Isosorbid-dimethyl ether 98%, sonication 40 C.",250 mg/mL
same,State of Solubility,"[6]; Isosorbid-dimethyl ether 98%, sonication 40 C., at the concentration of the same line",Suspension
same,Dissolving Capability,[6]; [12],50 mg/mL
same,State of Solubility,[6]; [12],Suspension
same,Dissolving Capability,[6]; [13],250 mg/mL
same,State of Solubility,[6]; [13],Suspension
same,Dissolving Capability,"[6]; Oleyl alcohol, sonication RT",50 mg/mL
same,State of Solubility,"[6]; Oleyl alcohol, sonication RT",Suspension
same,Dissolving Capability,"[6]; Water, sonication 40 C.",50 mg/mL
same,State of Solubility,"[6]; Water, sonication 40 C.",Suspension
same,Dissolving Capability,"[6]; Water, sonication RT",25 mg/mL
same,State of Solubility,"[6]; Water, sonication RT",Suspension
